These results are taken from patent publication US20150329558A1, “FUSED HETEROCYCLIC COMPOUNDS AS ION CHANNEL MODULATORS” (Gilead Sciences, Inc., priority 2011, published 2015).

This experiment addresses wild-type human cardiac sodium channel, hNav1.5 (late INa) (Homo sapiens, UniProt Q14524). Nature of the experiment: Late INa screening assay (QPatch whole cell patch clamp). Format: cell-based. The following applies: percent block of late INa, compound at 1 μM, 10 μM Tefluthrin, HEK293 hNav1.5; read-out: Late INa 1 μM. The method, then: The late sodium current (Late INa) and peak sodium current (Peak INa) assays are performed on an automated electrophysiology platform, QPatch 16× (Sophion Bioscience, Copenhagen, Denmark), which uses the whole cell patch clamp technique to measure currents through the cell membrane of up to 16 cells at a time. The assay uses an HEK293 (human embryonic kidney) cell line heterologously expressing the wild-type human cardiac sodium channel, hNav1.5, purchased from Millipore (Billerica, Mass.). No beta subunits were coexpressed with the Na channel alpha subunit. Cells are maintained with standard tissue culture procedures and stable channel expression is maintained with 400 μg/mL Geneticin in the culture medium. […] Experiments are carried out at 23-25° C. For both the Late INa and Peak INa assays, series resistance compensation is set to 100% and series resistance and whole-cell compensation are performed automatically. Currents are digitized at 25 kHz and low-pass filtered at 12 kHz and 10 kHz for the late and peak INa assays, respectively. Currents through open sodium channels are automatically recorded and stored in the Sophion Bioscience Oracle database (Sophion Bioscience, Copehagen, Denmark). Analysis is performed using QPatch Assay and database software and data are compiled in Excel. Compound stocks are routinely made by the Gilead Sample Bank in plastic vials to 10 mM in dimethyl sulfoxide (DMSO). In some cases, when compounds are not soluble in DMSO, they are made in 100% ethanol. Stocks are sonicated as necessary. […] The intracellular solution used to perfuse the inside of the cells for both the Late INa and Peak INa assays contains: 120 mM CsF, 20 mM CsCl, 5 mM EGTA, 5 mM HEPES and pH adjusted to 7.4 with CsOH. Compounds are diluted in extracellular solution to 1 μM in glass vials and then transferred to glass well plates before robotic addition to the cells. […] For the Late INa assay, sodium channels are activated every 10 seconds (0.1 Hz) by depolarizing the cell membrane to −20 mV for 250 milliseconds (ms) from a holding potential of −120 mV. In response to a −20 mV voltage step, typical hNav1.5 sodium currents activate rapidly to a peak negative current and then inactivate nearly completely within 3-4 ms. All compounds were tested to determine their activity in blocking the late sodium current. Late INa was generated by adding 10 μM Tefluthrin (pyrethroid) to the extracellular solution while recording Na currents. To confirm the block of late INa observed using the automated screening method, a second late INa enhancer (ATX-II) and the manual patch clamp method were used. ATX-II and tefluthrin occupy distinct, non-overlapping binding sites and modify Na^+ channel function differently to increase late INa. […] For the purposes of the screening, late INa is defined as the mean current between 225 ms and 250 ms after stepping to −20 mV to activate Na channels. […] Results are reported as percent block of late INa.

Chain of wild-type human cardiac sodium channel, hNav1.5 (late INa) (Q14524 whole entry): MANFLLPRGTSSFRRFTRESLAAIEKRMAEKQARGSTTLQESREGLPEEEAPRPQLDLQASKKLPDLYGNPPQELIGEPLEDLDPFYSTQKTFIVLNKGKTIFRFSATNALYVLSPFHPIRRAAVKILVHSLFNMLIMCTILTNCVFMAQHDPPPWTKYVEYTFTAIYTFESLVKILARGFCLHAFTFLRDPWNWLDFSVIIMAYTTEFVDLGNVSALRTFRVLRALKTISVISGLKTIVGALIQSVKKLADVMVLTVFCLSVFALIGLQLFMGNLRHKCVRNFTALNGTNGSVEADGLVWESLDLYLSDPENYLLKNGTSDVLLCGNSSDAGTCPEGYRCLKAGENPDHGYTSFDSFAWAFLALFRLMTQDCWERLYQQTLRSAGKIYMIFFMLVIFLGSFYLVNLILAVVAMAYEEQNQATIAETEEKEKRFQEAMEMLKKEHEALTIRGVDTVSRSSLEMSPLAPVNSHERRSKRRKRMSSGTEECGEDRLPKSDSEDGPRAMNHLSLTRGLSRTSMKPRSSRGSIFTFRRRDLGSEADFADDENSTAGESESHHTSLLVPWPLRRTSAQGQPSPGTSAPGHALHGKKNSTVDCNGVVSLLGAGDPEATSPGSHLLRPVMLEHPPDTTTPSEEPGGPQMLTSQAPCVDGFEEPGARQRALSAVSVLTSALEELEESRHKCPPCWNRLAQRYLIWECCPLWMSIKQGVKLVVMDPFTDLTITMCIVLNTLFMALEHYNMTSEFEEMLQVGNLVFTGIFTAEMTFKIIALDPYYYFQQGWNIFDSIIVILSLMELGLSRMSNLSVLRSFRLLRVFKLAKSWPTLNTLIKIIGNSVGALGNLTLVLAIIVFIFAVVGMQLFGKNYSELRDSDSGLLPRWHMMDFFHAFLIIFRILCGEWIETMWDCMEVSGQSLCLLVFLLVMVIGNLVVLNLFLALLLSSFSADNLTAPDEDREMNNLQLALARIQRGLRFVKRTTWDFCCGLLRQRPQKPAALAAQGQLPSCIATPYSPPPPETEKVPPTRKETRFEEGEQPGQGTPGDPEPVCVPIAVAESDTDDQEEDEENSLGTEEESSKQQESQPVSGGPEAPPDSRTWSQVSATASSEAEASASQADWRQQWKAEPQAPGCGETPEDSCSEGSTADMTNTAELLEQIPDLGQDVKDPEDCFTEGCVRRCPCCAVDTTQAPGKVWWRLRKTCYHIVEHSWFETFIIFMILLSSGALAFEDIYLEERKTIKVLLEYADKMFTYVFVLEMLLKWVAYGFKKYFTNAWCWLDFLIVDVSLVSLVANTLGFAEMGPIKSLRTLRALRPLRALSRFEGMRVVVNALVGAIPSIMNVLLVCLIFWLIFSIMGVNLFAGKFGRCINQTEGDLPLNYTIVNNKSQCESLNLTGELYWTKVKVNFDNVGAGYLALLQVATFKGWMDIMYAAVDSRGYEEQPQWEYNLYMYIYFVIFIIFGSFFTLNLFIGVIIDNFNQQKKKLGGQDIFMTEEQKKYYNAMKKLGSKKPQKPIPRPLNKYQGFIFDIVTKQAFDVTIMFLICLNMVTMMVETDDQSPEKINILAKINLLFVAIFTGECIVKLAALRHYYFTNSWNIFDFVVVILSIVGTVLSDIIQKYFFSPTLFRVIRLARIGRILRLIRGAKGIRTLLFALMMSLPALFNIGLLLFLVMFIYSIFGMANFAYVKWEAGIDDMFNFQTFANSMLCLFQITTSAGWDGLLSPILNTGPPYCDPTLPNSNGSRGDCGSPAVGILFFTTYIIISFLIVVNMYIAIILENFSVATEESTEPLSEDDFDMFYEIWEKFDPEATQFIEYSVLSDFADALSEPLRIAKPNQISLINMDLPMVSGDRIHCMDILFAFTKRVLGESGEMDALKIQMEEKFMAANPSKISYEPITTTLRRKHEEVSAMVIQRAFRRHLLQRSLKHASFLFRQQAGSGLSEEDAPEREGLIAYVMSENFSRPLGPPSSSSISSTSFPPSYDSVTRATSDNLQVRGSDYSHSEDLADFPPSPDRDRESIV

Consider `Cc1nc(Cn2nnc3ccc(-c4ccc(OCC(F)(F)F)nc4)cc3c2=O)no1` [Compound V-2, 3-((5-methyl-1,2,4-oxadiazol-3-yl)methyl)-6-(6-(2,2,2-trifluoroethoxy)pyridin-3-yl)benzo[d][1,2,3]triazin-4(3H)-one], for which the inhibition at 1 µM stood at 17%.

In the case of `O=c1c2cc(-c3ccc(C(F)(F)F)nc3)ccc2nnn1CCOc1ncccn1` [Compound V-11, 3-(2-(pyrimidin-2-yloxy)ethyl)-6-(6-(trifluoromethyl)pyridin-3-yl)benzo[d][1,2,3]triazin-4(3H)-one], the inhibition at 1 µM is 22%.

Regarding `O=c1c2cc(-c3ccc(OC(F)(F)F)cc3)ccc2nnn1Cc1cc(-c2ccccc2)no1` [II-10, 3-((3-phenylisoxazol-5-yl)methyl)-6-(4-(trifluoromethoxy)phenyl)benzo[d][1,2,3]triazin-4(3H)-one], the inhibition at 1 µM was 21%.

On to `O=c1c2cc(-c3ccc(OC(F)(F)F)cc3)ccc2nnn1Cc1nc(Cc2ccccc2)no1` [II-12, 3-((3-benzyl-1,2,4-oxadiazol-5-yl)methyl)-6-(4-(trifluoromethoxy)phenyl)benzo[d][1,2,3]triazin-4(3H)-one], for which the inhibition at 1 µM amounted to 21%.

As for `O=c1c2cc(-c3ccc(OC(F)(F)F)cc3)ccc2nnn1Cn1nnnc1-c1ccccc1` [II-21, 3-((5-phenyl-1H-tetrazol-1-yl)methyl)-6-(4-(trifluoromethoxy)phenyl)benzo[d][1,2,3]triazin-4(3H)-one], the inhibition at 1 µM stood at 70%.

`O=c1c2cc(-c3ccc(OC(F)(F)F)cc3)ccc2nnn1C1CC1` [II-22, 3-cyclopropyl-6-(4-(trifluoromethoxy)phenyl)benzo[d][1,2,3]triazin-4(3H)-one]: the inhibition at 1 µM was 21%.

For the compound `Cc1nc(Cn2nnc3ccc(-c4ccc(OC(F)(F)F)cc4)cc3c2=O)oc1C` [II-23, 3-((4,5-dimethyloxazol-2-yl)methyl)-6-(4-(trifluoromethoxy)phenyl)benzo[d][1,2,3]triazin-4(3H)-one], the inhibition at 1 µM was 23%.

In the case of `O=c1c2cc(-c3ccc(OC(F)(F)F)cc3)ccc2nnn1Cn1nc2ccccc2n1` [II-28, 3-((2H-benzo[d][1,2,3]triazol-2-yl)methyl)-6-(4-(trifluoromethoxy)phenyl)benzo[d][1,2,3]triazin-4(3H)-one], the inhibition at 1 µM is 19%.

Regarding `N#CC1(n2nnc3ccc(-c4ccc(OC(F)(F)F)cc4)cc3c2=O)CC1` [II-33, 1-(4-oxo-6-(4-(trifluoromethoxy)phenyl)benzo[d][1,2,3]triazin-3 (4H)-yl)cyclopropanecarbonitrile], the inhibition at 1 µM is 26%.

Turning to `O=c1c2cc(-c3ccc(OC(F)(F)F)cc3)ccc2nnn1C1CCN(c2ncccn2)CC1` [II-39, 3-(1-(pyrimidin-2-yl)piperidin-4-yl)-6-(4-(trifluoromethoxy)phenyl)benzo[d][1,2,3]triazin-4(3H)-one], the inhibition at 1 µM stood at 16%.

As to `O=c1c2cc(-c3ccc(OC(F)(F)F)cc3)ccc2nnn1Cc1ccccc1` [II-42, 3-benzyl-6-(4-(trifluoromethoxy)phenyl)benzo[d][1,2,3]triazin-4(3H)-one], the inhibition at 1 µM was found to be 23%.

As to `O=c1c2cc(-c3ccc(OC(F)(F)F)cc3)ccc2nnn1OCc1ncccn1` [II-56, 3-(pyrimidin-2-ylmethoxy)-6-(4-(trifluoromethoxy)phenyl)benzo[d][1,2,3]triazin-4(3H)-one], the inhibition at 1 µM was found to be 22%.

`O=c1c2cc(-c3ccc(OC(F)(F)F)cc3)ccc2nnn1CC1(Cn2ccnc2)CC1` [II-58, 3-((1-((1H-imidazol-1-yl)methyl)cyclopropyl)methyl)-6-(4-(trifluoromethoxy)phenyl)benzo[d][1,2,3]triazin-4(3H)-one]: the inhibition at 1 µM stood at 25%.

With `O=c1c2cc(-c3ccc(OC(F)(F)F)cc3)ccc2nnn1OCc1cccnc1` [II-59, 3-(pyridin-3-ylmethoxy)-6-(4-(trifluoromethoxy)phenyl)benzo[d][1,2,3]triazin-4(3H)-one], the inhibition at 1 µM turned out to be 22%.

For the compound `O=C(Cn1nnc2ccc(-c3ccc(Oc4ccc(Cl)cc4)cc3)cc2c1=O)N1CCN(c2ncccn2)CC1` [II-65, 6-(4-(4-chlorophenoxyl)phenyl)-3-(2-oxo-2-(4-(pyrimidin-2-yl)piperazin-1-yl)ethyl)benzo[d][1,2,3]triazin-4(3H)-one], the inhibition at 1 µM amounted to 19%.

`CC(c1nc(C2CC2)no1)n1nnc2ccc(-c3ccc(OC(F)(F)F)cc3)cc2c1=O` (stereo not drawn) [II-79, 3-(1-(3-cyclopropyl-1,2,4-oxadiazol-5-yl)ethyl)-6-(4-(trifluoromethoxy)phenyl)benzo[d][1,2,3]triazin-4(3H)-one]: the inhibition at 1 µM turned out to be 54%.

As for `O=c1c2cc(-c3ccc(OC(F)(F)F)cc3)ccc2cnn1Cc1ccccc1` [III-6, 2-benzyl-7-(4-(trifluoromethoxy)phenyl)phthalazin-1(2H)-one], the inhibition at 1 µM is 18%.

As to `O=c1c2cc(-c3ccc(OC(F)(F)F)cc3)ccc2cnn1CCc1ccccc1` [III-8, 2-phenethyl-7-(4-(trifluoromethoxy)phenyl)phthalazin-1(2H)-one], the inhibition at 1 µM was found to be 19%.

For the compound `Cc1nonc1Cn1ncc2ccc(-c3ccc(OC(F)(F)F)cc3)cc2c1=O` [III-11, 2-((4-methyl-1,2,5-oxadiazol-3-yl)methyl)-7-(4-(trifluoromethoxy)phenyl)phthalazin-1 (2H)-one], the inhibition at 1 µM stood at 30%.

Turning to `N#Cc1cccc(Cn2ncc3ccc(-c4ccc(OC(F)(F)F)cc4)cc3c2=O)n1` [III-12, 6-((1-oxo-7-(4-(trifluoromethoxy)phenyl)phthalazin-2(1H)-yl)methyl)picolinonitrile], the inhibition at 1 µM was determined as 21%.

In the case of `Cn1c(CCn2ncc3ccc(-c4ccc(OC(F)(F)F)cc4)cc3c2=O)nc2ccccc21` [III-25, 2-(2-(1-methyl-1H-benzo[d]imidazol-2-yl)ethyl)-7-(4-(trifluoromethoxy)phenyl)phthalazin-1 (2H)-one], the inhibition at 1 µM is 16%.

On to `O=c1c2cc(-c3ccc(OC(F)(F)F)cc3)ccc2cnn1CCn1cncn1` [III-26, 2-(2-(1H-1,2,4-triazol-1-yl)ethyl)-7-(4-(trifluoromethoxy)phenyl)phthalazin-1 (2H)-one], for which the inhibition at 1 µM is 26%.

In the case of `O=c1c2cc(-c3ccc(OC(F)(F)F)cc3)ccc2cnn1CCn1cc(Br)cn1` [III-31, 2-(2-(4-bromo-1H-pyrazol-1-yl)ethyl)-7-(4-(trifluoromethoxy)phenyl)phthalazin-1 (2H)-one], the inhibition at 1 µM is 27%.

Turning to `O=c1c2cc(-c3ccc(OC(F)(F)F)cc3)ccc2cnn1Cc1cc(-c2ccccn2)on1` [III-41, 2-((5-(pyridin-2-yl)isoxazol-3-yl)methyl)-7-(4-(trifluoromethoxy)phenyl)phthalazin-1 (2H)-one], the inhibition at 1 µM was 24%.

On to `O=C1c2cc(C#Cc3ccc(C(F)(F)F)cc3)ccc2CCN1Cc1ncccn1` [IX-4], for which the inhibition at 1 µM came out at 20%.

For the compound `O=C1c2cc(C#Cc3ccc(OC(F)(F)F)cc3)ccc2CCN1Cc1ncccn1` [IX-5], the inhibition at 1 µM was determined as 20%.

On to `O=C(c1ncccn1)N1CCc2ccc(-c3ccc(C(F)(F)F)cc3F)cc2C1` [IX-22, (7-(2-fluoro-4-(trifluoromethyl)phenyl)-3,4-dihydroisoquinolin-2(1H)-yl)(pyrimidin-2-yl)methanone], for which the inhibition at 1 µM was 29%.
